Patent US11331339B2, “Compound composition with function of promoting bone and joint health and application thereof” (Chenland Nutritionals, Inc., priority 2019, dated 2022)

Legend:
[1] = system: wistar rats injected with papain; test: Test IV: walking pain score from sole marks; type: in vivo; settings: score 0-4, papain model, 28 days, daily dosage 126 mg/kg
Protocol: Male wistar rats are randomly divided into a control group, a model group and an experimental group. Each group includes 10 rats. The rats are injected with papain for molding. The rats are administered for 28 days at the same time of molding. Before the rats are put to death, the left and right soles of the rats are evenly imprinted with printing ink of the same color and the rats walk by 0.4 m on a self-made semi-closed rat walking passage. The sole marks are photographed. Three persons independently score the walking pain based on the sole photos according to the following scoring standard for walking pain and measure the walking pain (when the limbs have a pain reaction, the rats move with the minimum contact area of the paws to reduce the pressure on the affected limbs; and when the left and right feet are uneven in stress and the gait is changed, the colors of the soles are different). The sole is divided into four regions: if one region of the left sole is darker than the right sole, the score is 1; if two regions are darker, the score is 2; and the score is added in sequence (0-4 scores). […] The rats administered with the product can alleviate the arthritis to a certain extent, and can walk slightly normally, so as to reflect the degree of arthritis according to the walking scores.

[2] = system: wistar rats injected with papain; test: Test II: tenderness thresholds at modeling joints, measured with a tenderness meter; type: in vivo; settings: papain model, 28 days, daily dosage 126 mg/kg
Protocol: Male wistar rats are randomly divided into a control group, a model group and an experimental group. Each group includes 10 rats. The rats are injected with papain for molding. The rats are administered for 28 days at the same time of molding. Before the rats are put to death, the tenderness thresholds at modeling joints are measured with a tenderness meter.

IL-6 = test: Test I: IL-6 content in serum of rats, same administration time and same dosage; type: in vivo, wistar rats; settings: rat serum, daily dosage 125 mg/kg
Protocol: Male wistar rats are randomly divided into a control group, a model group and an experimental group. Each group includes 10 rats. The rats are injected with papain for molding. The rats are administered for 28 days at the same time of molding. Before the rats are put to death, blood is taken from the abdominal vein and centrifuged to obtain serum. The IL-1β content is detected. Specific results are shown in Table 1: In addition, to verify the technical solution of the present invention and small daily dosage of the single glucosamine, the inventor respectively experiments the male wistar rats in the same administration time and under the same administration dosage, and detects the IL-6 content in the serum.

IL-1β = test: Test I: IL-1β content in serum of rats injected with papain, administered 28 days; type: in vivo, wistar rats; settings: rat serum, papain model, daily dosage 126 mg/kg
Protocol: Male wistar rats are randomly divided into a control group, a model group and an experimental group. Each group includes 10 rats. The rats are injected with papain for molding. The rats are administered for 28 days at the same time of molding. Before the rats are put to death, blood is taken from the abdominal vein and centrifuged to obtain serum. The IL-1β content is detected. Specific results are shown in Table 1: The blank group includes normal rats for arthritis modeling. The model group includes rats not administered after modeling. The experimental administration group administers the product of the present invention to the rats. The glucosamine sulfate control group administers glucosamine to the rats. The glucosamine+chondroitin sulfate+collagen control group administers glucosamine+chondroitin sulfate+collagen to the rats. IL-1β is an inflammatory factor in the serum. Normal rats contain the lowest levels of inflammatory factors, and the rats with arthritis but not administered contain the highest levels of inflammatory factors. If different products are administered to rats, the degree of arthritis is alleviated to a certain extent and the levels of inflammatory factors in the rats are reduced to be lower than that of the highest model group, but higher than normal rats.

## N[C@H]1C(O)O[C@H](CO)[C@@H](O)[C@@H]1O.O=S(=O)(O)O (some centres unmarked) [Glucosamine sulfate control group 1, Glucosamine sulfate]
[1]
  Scores of walking pain: 0.5 ± 0.2303
[2]
  Tenderness thresholds: 5.607 ± 0.2602 newton
IL-6; listed as Glucosamine sulfate control group
  IL-6 content: 146.19 ± 18.15 ng/L
IL-6; listed as glucosamine sulfate control group
  IL-6 content: not obviously lower than the model group
IL-1β
  IL-1β content: 9.456 ± 1.657 ng/L
